Results published in patent publication US20110183389A1, “PRODUCTION OF LACTIC ACID FROM HEMICELLULOSE EXTRACTS” (priority 2009, published 2011).
Read-outs that look alike come from different tables or passages of the source.

Tested on: Bacillus coagulans MXL-9
Settings: for fermentation time: control consumed xylose within 14 hours; for Ferment Time / Acetic Acid Produced / Ethanol Produced / Formic Acid Produced / Lactic Acid Prod. Rate / Lactic Acid Produced / Lactic Acid Yield / Total Products Yield / Xylose Consumed: pH 6.5, 50° C.
[1] = 30 g/L inhibitor, 20 g/L xylose
[2] = inhibitor conc. 10 g/L, 20 g/L xylose
[3] = inhibitor conc. 20 g/L, 20 g/L xylose
[4] = inhibitor conc. 30 g/L, 20 g/L xylose

Row | SMILES | Ferment Time [2] [h] | Acetic Acid Produced (inhibitor conc. 10 g/L) [g/L] | Ethanol Produced (inhibitor conc. 10 g/L) [g/L] | Formic Acid Produced (inhibitor conc. 10 g/L) [g/L] | Lactic Acid Prod. Rate (inhibitor conc. 10 g/L) [g/L/h] | Lactic Acid Produced (inhibitor conc. 10 g/L) [g/L] | Lactic Acid Yield (inhibitor conc. 10 g/L) [%] | Total Products Yield (inhibitor conc. 10 g/L) [%] | Xylose Consumed (inhibitor conc. 10 g/L) [g/L] | Ferment Time [3] [h] | Acetic Acid Produced (inhibitor conc. 20 g/L) [g/L] | Ethanol Produced (inhibitor conc. 20 g/L) [g/L] | Formic Acid Produced (inhibitor conc. 20 g/L) [g/L] | Lactic Acid Prod. Rate (inhibitor conc. 20 g/L) [g/L/h] | Lactic Acid Produced (inhibitor conc. 20 g/L) [g/L] | Lactic Acid Yield (inhibitor conc. 20 g/L) [%] | Total Products Yield (inhibitor conc. 20 g/L) [%] | Xylose Consumed (inhibitor conc. 20 g/L) [g/L] | Ferment Time [4] [h] | Acetic Acid Produced (inhibitor conc. 30 g/L) [g/L] | also measured
1 | CC(=O)O [HAc, acetic acid] | 17 | 0.0 | 1.0 | 1.1 | 1.0 | 17.3 | 81.0 | 90.7 | 21.4 | 22 | 0.0 | 0.8 | 0.5 | 0.9 | 19.3 | 93.6 | 99.8 | 20.6 | 60 | 0.0 | fermentation time (10 g/L inhibitor): complete in under a day; fermentation time (20 g/L inhibitor): complete in under a day; lag phase [1]: longer lag phase; overall lactic acid yield [1]: not diminished; fermentation time (30 g/L inhibitor): two days; Ethanol Produced (inhibitor conc. 30 g/L): 0.4 g/L; Formic Acid Produced (inhibitor conc. 30 g/L): 0.4 g/L; Lactic Acid Prod. Rate (inhibitor conc. 30 g/L): 0.3 g/L/h; Lactic Acid Produced (inhibitor conc. 30 g/L): 18.5 g/L; Lactic Acid Yield (inhibitor conc. 30 g/L): 91.4%; Total Products Yield (inhibitor conc. 30 g/L): 95.3%; Xylose Consumed (inhibitor conc. 30 g/L): 20.2 g/L
2 | [Na] [Na, sodium] | 32 | 0.8 | 0.0 | 1.3 | 0.6 | 18.8 | 83.1 | 92.4 | 22.4 | 62 | 0.7 | 0.0 | 1.3 | 0.3 | 19.6 | 85.9 | 94.5 | 22.7 | 150 | 0.0 | lag time (20 g/L inhibitor, xylose): increased the lag time; overall product yield (20 g/L inhibitor, xylose): did not affect overall product yield; inhibition of xylose fermentation (30 g/L inhibitor): completely inhibitory; cell growth (30 g/L inhibitor, over the course of 6 days): no cell growth occurred; Ethanol Produced (inhibitor conc. 30 g/L): 0.0 g/L; Formic Acid Produced (inhibitor conc. 30 g/L): 0.0 g/L; Lactic Acid Prod. Rate (inhibitor conc. 30 g/L): 0.0 g/L/h; Lactic Acid Produced (inhibitor conc. 30 g/L): 0.0 g/L; Lactic Acid Yield (inhibitor conc. 30 g/L): 2.6%; Total Products Yield (inhibitor conc. 30 g/L): 2.6%; Xylose Consumed (inhibitor conc. 30 g/L): 0.8 g/L
